# Results as given in patent publication US6365643B1, “Photoinitiators for cationic curing” (Th. Goldschmidt AG, priority 1999, dated 2002).
# Read-outs that look alike come from different tables or passages of the source.
# What was measured:
# [1] = Solubility in white spirit; type: physicochemical
# From the text: The solubility of the cationic photoinitiators of the invention was compared with the solubility of commercial, hydroxyl-bearing cationic photoinitiators.
# [2] = Miscibility with organopolysiloxanes containing epoxy groups; type: physicochemical
compound,measurement,setting,value
CCCCCCCCCCCCC(O)COc1ccc([I+]c2ccccc2)cc1 (stereo not drawn) [CD-1012],solubility in white spirit,[1],insoluble
same,solubility in white spirit,"[1]; Table 1, Comparison 1",insoluble
same,miscibility with organopolysiloxanes containing epoxy groups,[2],no miscibility
